Reference: patent publication US8198293B2, “Oxymatrine compositions and related methods for treating and preventing chronic infectious diseases” (priority 2008, dated 2012)

Assays:
[1] = system: chronic enterovirus infection / chronic fatigue; assay: Case reports: treatment of chronic fatigue (Examples 2-5); assay type: in vivo, human
Protocol: A person with episodes of diarrhea while traveling to Tonga developed severe respiratory infection soon thereafter. The symptoms consisted of fevers to 105° F., night sweats, diffuse myalgia, tachycardia, fatigue, sinus congestion and cough, and unresponsiveness to antibiotics. The patient developed profound fatigue thereafter and went on total disability three months after the onset of symptoms. Initial Coxsackie B virus (CBV) 3, CVB4 and echovirus 9 antibody titers were 1:320, 1:160, 1:80 (normal <1:10), respectively.
The patient could not work for the next 18 months. They were started on oxymatrine at 300 mg twice a day (bid). After taking oxymatrine for two months, they were able to take short walks, but still exhausted after one hour of activity requiring five hour naps. At the end of three months of therapy, they started having fevers of 104-105° F. for several days with marked decrease in diffuse myalgia. […] CVB3, CVB4 and echovirus antibody three months after therapy were 1:160, 1:160 and 1:20, respectively.
A person who had recurrent episodes of debilitating fatigue became totally incapacitated after approximately 17 years. […] They went into remission but relapsed nine months later after developing a minor upper respiratory infection. They improved minimally after several months of bed rest, but was barely able to work six hours per day. They had brain fog, myalgia ( 7/10 pain) and was barely able to walk even 1-2 blocks.
Three days after taking oxymatrine at a dose of 300 mg bid, the myalgia intensified ( 10/10 pain), especially one hour after taking the pills. One week after starting oxymatrine, routine laboratory tests including CBC, chemistry panel and creatine phosphokinase (CPK) were normal. They continued having significant fatigue and myalgia for the next three weeks, but the symptoms resolved one week after stopping the medication. Mild increase in myalgia recurred three days after resuming oxymatrine, but resolved after continuing the medication for the next two weeks. The patient felt well at the end of three months with minimal discomfort in a few muscle groups.
Severe myalgia recurred after resuming vigorous exercise for three weeks while taking oxymatrine. They had to stop exercise for the two months allowing cessation of myalgia. After taking oxymatrine for six months, the patient felt well. Over the next six months after stopping the medication, the patient continuously performed heavy physical activities without significant difficulty. After developing another episode of upper respiratory symptoms, their symptoms relapsed. They have resumed oxymatrine but experienced increasing myalgia as the fatigue improved.
A person with a known history of frequent respiratory infections and vasovagal syncope developed respiratory infection, which was followed by bedridden fatigue. Enteroviral protein was detected in the stomach biopsy consistent with chronic enterovirus infection. […] After vigorous exercise, they would still have relapses of bedridden fatigue for one day but continued to work 10-12 hours per day for the next 12 months, walking two miles per day. Laboratory tests were normal while on therapy.
A person developed debilitating fatigue, sore throat, oral ulcers, vertigo, headaches and cognitive dysfunction two months after having a flu-like illness. […] Approximately four years later, the patient started taking oxymatrine. After an initial increase of gastrointestinal symptoms for the first two weeks, the patient tolerated 500 mg per day of oxymatrine.
The symptoms continued for two weeks and resolved after stopping oxymatrine. […] They continued to improve for 12 months after taking the medication.

[2] = system: Mycobacterium avium complex (MAC); assay: Case report: Mycobacterium avium complex infection of the lung; assay type: in vivo, human
Protocol: A person with known history of Mycobacterium avium complex (MAC) infection of the lung and bronchiectasis for several years was treated with clarithromycin, ethambutol, ciprofloxacin and rifabutin for about five years. […] Intravenous amikacin was added following right middle and left lingula lobectomy. In spite of the above therapy, sputum and repeat bronchial washing obtained by bronchoscopy grew MAC within three weeks. A computed tomography scan of the chest remained unchanged except for the post-surgical changes.
Because of persistent positive cultures despite the four drug therapies, the patient was started on oxymatrine, which they tolerated well. […] Sputum became clear in color then resolved. About two months after the start of oxymatrine, the patient had fevers, flu-like symptoms, increase in non-productive cough, bilateral uveitis and elevation of liver enzymes to 3.5 times normal values. The symptoms lasted two weeks and resolved after tapering dose of oxymatrine to 200 mg bid. Liver enzymes returned to normal within six weeks. […] The anti-MAC medications were discontinued after […] of oxymatrine therapy. The dose of oxymatrine was tapered to 100 mg tid at four and a half months of therapy and then stopped after six months of total therapy. The patient felt well at the six month follow-up.

[3] = system: Varicella-Zoster Virus (VZV); assay: Case report: chronic recurrent Varicella-Zoster Virus infection (shingles); assay type: in vivo, human; conditions: Example 9 patient, 200 mg bid
Protocol: A person developed recurrent shingles after multiple episodes of sinus infections and sinus surgeries. They also had chronic indigestion and nausea. Fatigue became so severe that they were bedridden for several years.
Coxsackievirus B4 antibody was 1:320. […] The patient was started on oxymatrine 200 mg bid.

[4] = system: enterovirus; assay: Case report: acute enterovirus infection of the gastrointestinal tract; assay type: in vivo, human; conditions: Example 10 patient, 200 mg bid, after ten days
Source text: A person developed subacute onset of severe fatigue, nausea, anorexia and progressive weight loss of 20 pounds following an upper respiratory infection.

[5] = system: hepatitis B virus; conditions: HBV transgenic mice, cited from earlier work
[6] = compared to placebo-treated animals

O=C1CCC[C@@H]2[C@H]3CCC[N@+]4([O-])CCC[C@@H](CN12)[C@@H]34 [oxymatrine]
relapse after therapy ([1]; Example 2 patient): had not relapsed for at least one year | clinical outcome ([1]; Example 2 patient, three months after finishing the medication): went back to full-time work | laboratory studies including CBC and complete chemistry panel during therapy ([1]; Example 2 patient, calcium resolved after stopping hydrochlorothiazide): normal except mildly elevated calcium levels | clinical outcome ([1]; Example 3 patient, after taking oxymatrine for six months): felt well | routine laboratory tests including CBC, chemistry panel and CPK ([1]; Example 3 patient, one week after starting oxymatrine): normal | myalgia pain score ([1]; Example 3 patient, three days after starting 300 mg bid, 7/10 before): 10/10 | laboratory tests while on therapy ([1]; Example 4 patient): normal | tolerability ([1]; Example 4 patient): tolerated well without any adverse reactions | clinical outcome ([1]; Example 4 patient, after taking the medication for six weeks): returned to full-time work | clinical outcome ([1]; Example 5 patient, three months later): able to return to part-time work and regular exercise | symptoms during therapy ([1]; Example 5 patient, two months on 500 mg per day, resolved after stopping oxymatrine): severe diffuse ulcerations of the mouth mucosa, increasing headache, sinus congestion and severe myalgia | elevation of liver enzymes ([2]; about two months after start, returned to normal within six weeks after dose tapering to 200 mg bid): 3.5 times normal values | repeat computed tomography scans of the chest ([2]; in vivo): healing and calcifications of the lesions | repeat bronchial washing culture ([2]; six months after onset of oxymatrine therapy, with anti-MAC medications): no growth of MAC | night sweats ([2]; within two months): decreased from twice a week to once every two weeks | outbreaks of shingles [3]: less often and not as severe | clinical outcome ([3]; three months): went back to full-time work | clinical outcome [4]: resumed their normal activity | level of gamma interferon [5, 6]: increased more than three-fold | level of interleukin-2 [5, 6]: increased more than three-fold | level of interleukin-4 [5, 6]: decreased more than three-fold | level of interleukin-10 [5, 6]: decreased more than three-fold | effect on hepatitis B viremia, mRNA and protein levels [5]: No effect
